According to US12024707B2, “Methods and compositions for modulating lncRNAs and methods of treatment based on lncRNA expression” (Washington University, priority 2020, dated 2024):
“And” between values parts separate entries of the source, which are not always exact repeats. Equal entries are not always repeated. Structures can show the parent of a compound that is named as a salt. Where two headings read alike, the source gives them in different places.

Test system: HT29 RAMS11 overexpressing cells
Experiment: High-throughput viability assay (resazurin), 119 FDA-approved anticancer drugs, RAMS11 overexpressing cells (Clone1, Clone2)
Conditions: for increase in drug resistance in HT29 RAMS11 overexpressing cells: topoisomerase inhibitors, vs empty vector cells
[1] = OE1 (RAMS11 overexpression clone 1), 0.1 uM drug, 72 h, vs empty vector control
[2] = OE1 (RAMS11 overexpression clone 1), 1 uM drug, 72 h, vs empty vector control
[3] = OE1 (RAMS11 overexpression clone 1), 10 uM drug, 72 h, vs empty vector control
[4] = OE2 (RAMS11 overexpression clone 2), 0.1 uM drug, 72 h, vs empty vector control
[5] = OE2 (RAMS11 overexpression clone 2), 1 uM drug, 72 h, vs empty vector control
[6] = OE2 (RAMS11 overexpression clone 2), 10 uM drug, 72 h, vs empty vector control

Compound	Viability Fold Change [1]	Viability Fold Change [2]	Viability Fold Change [3]	Viability Fold Change [4]	Viability Fold Change [5]	Viability Fold Change [6]	increase in drug resistance in HT29 RAMS11 overexpressing cells	Viability Fold Change
O=C(CCCCCCC(=O)Nc1ccccc1)NO [Vorinostat]	1.123	0.8948	1.604	1.068	1.159	1.356	–	–
CC(C)(C#N)c1cc(Cn2cncn2)cc(C(C)(C)C#N)c1 [Anastrozole]	0.876	0.9957	0.9385	0.9749	1.001	0.9255	–	–
COc1cc2c(Nc3ccc(Br)cc3F)ncnc2cc1OCC1CCN(C)CC1 [Vandetanib]	0.9025	0.8127	1.181	0.971	0.9162	1.142	–	–
CN(Cc1cnc2nc(N)nc(N)c2n1)c1ccc(C(=O)N[C@@H](CCC(=O)O)C(=O)O)cc1 [Methotrexate]	0.9199	0.5578	1.197	0.9143	0.5752	1.137	–	–
CC(C)C[C@H](NC(=O)[C@H](CCc1ccccc1)NC(=O)CN1CCOCC1)C(=O)N[C@@H](Cc1ccccc1)C(=O)N[C@@H](CC(C)C)C(=O)[C@@]1(C)CO1 [Carfilzomib]	3.32	2.1	1.625	2.675	1.654	1.343	–	–
CC(=O)[C@]1(O)Cc2c(O)c3c(c(O)c2[C@@H](O[C@H]2C[C@H](N)[C@H](O)[C@H](C)O2)C1)C(=O)c1ccccc1C3=O [idarubicin HCl, reference compound]	–	–	–	–	–	–	at least a two-fold increase in drug resistance	–
O=C(c1cc(Cc2n[nH]c(=O)c3ccccc23)ccc1F)N1CCN(C(=O)C2CC2)CC1 [Olaparib]	0.8162	0.9061	1	0.9035	0.952	0.9733	–	–
CCCS(=O)(=O)Nc1ccc(F)c(C(=O)c2c[nH]c3ncc(-c4ccc(Cl)cc4)cc23)c1F [Vemurafenib]	0.6921	0.4381	0.569	0.762	0.5468	0.6144	–	–
COc1cccc2c1C(=O)c1c(O)c3c(c(O)c1C2=O)C[C@@](O)(C(=O)CO)C[C@@H]3O[C@H]1C[C@H](N)[C@@H](O)[C@H](C)O1 [Epirubicin hydrochloride]	1.025	1.822	2.19	1.023	1.861	1.999	–	–
O=NN(CCCl)C(=O)NC1CCCCC1 [Lomustine]	0.9969	1.03	1.027	0.991	1.111	0.9646	–	–
O=C(CCBr)N1CCN(C(=O)CCBr)CC1 [Pipobroman]	0.9413	0.9838	0.9918	0.9432	0.9438	0.8949	–	–
C[C@@H](CN1CC(=O)NC(=O)C1)N1CC(=O)NC(=O)C1 [Dexrazoxane]	0.9553	0.9814	0.8688	0.9411	1.049	1.119	–	–
CC(C)Cn1cnc2c(N)nc3ccccc3c21 [Imiquimod]	1.048	1.101	1.03	1.037	1.138	0.9752	–	–
CC(=O)O[C@]1(C(C)=O)CC[C@H]2[C@@H]3C=C(C)C4=CC(=O)CC[C@]4(C)[C@H]3CC[C@@]21C [Megestrol acetate]	0.8922	1.034	0.9961	0.8949	0.9578	0.9016	–	–
CNC(=O)c1ccccc1Sc1ccc2c(/C=C/c3ccccn3)n[nH]c2c1 [Axitinib]	0.9514	0.9382	0.8636	0.911	1.101	0.8143	–	–
C[C@]12CC[C@@H]3c4ccc(OC(=O)N(CCCl)CCCl)cc4CC[C@H]3[C@@H]1CC[C@@H]2O [Estramustine]	0.97	1.105	1.034	0.951	1.223	1.025	–	–

Compound	Viability Fold Change [1]	Viability Fold Change [2]	Viability Fold Change [3]	Viability Fold Change [4]	Viability Fold Change [5]	Viability Fold Change [6]	increase in drug resistance in HT29 RAMS11 overexpressing cells	Viability Fold Change
COc1cc2nccc(Oc3ccc(NC(=O)C4(C(=O)Nc5ccc(F)cc5)CC4)cc3)c2cc1OC [Cabozantinib]	0.9713	1.012	0.995	0.9575	1.037	0.8731	–	–
S=P(N1CC1)(N1CC1)N1CC1 [Thiotepa]	–	–	–	–	–	–	–	0.7908 and 0.9826 and 0.9401 and 0.9694 and 0.9433 and 0.8817
Cc1ccc(-c2cc(C(F)(F)F)nn2-c2ccc(S(N)(=O)=O)cc2)cc1 [Celecoxib]	0.8767	0.9228	0.9797	0.948	0.9628	0.9848	–	–
CC(=O)Nc1cccc(-n2c(=O)n(C3CC3)c(=O)c3c(Nc4ccc(I)cc4F)n(C)c(=O)c(C)c32)c1 [Trametinib]	1.35	1.732	1.975	1.213	1.641	1.886	–	–
Oc1ncc(N(CCCl)CCCl)c(O)n1 [Uracil mustard]	–	–	–	–	–	–	–	0.8306 and 1.02 and 0.9705 and 0.9647 and 1.048 and 0.932
Nc1nc(F)nc2c1ncn2[C@@H]1O[C@H](CO)[C@@H](O)[C@@H]1O [Fludarabine]	0.869	0.9921	1.056	0.973	1.069	1.073	–	–
Bleomycin	0.921	1.039	1.025	0.96	–	–	–	–
C[C@]12CC[C@H](O)CC1=CC[C@@H]1[C@@H]2CC[C@]2(C)C(c3cccnc3)=CC[C@@H]12 [Abiraterone]	0.9503	0.9997	1.001	1.008	1.043	0.9879	–	–
CNC(=O)c1ccc(N2C(=S)N(c3ccc(C#N)c(C(F)(F)F)c3)C(=O)C2(C)C)cc1F [Enzalutamide]	1.043	1.081	1.088	1.022	1.152	1.1	–	–
Oc1ncnc2[nH]ncc12 [Allopurinol]	0.8682	0.9042	0.776	0.9002	0.8635	0.8648	–	–
COc1cccc2c1C(=O)c1c(O)c3c(c(O)c1C2=O)C[C@@](O)(C(C)=O)C[C@@H]3O[C@H]1C[C@H](N)[C@H](O)[C@H](C)O1 [daunorubicin HCl, reference compound]	1.103	2.258	3.761	1.084	2.098	3.726	at least a two-fold increase in drug resistance	–
N[C@@H](Cc1ccc(N(CCCl)CCCl)cc1)C(=O)O [Melphalan]	0.9214	1.006	0.9782	0.9479	1.068	0.9942	–	–
O=C(/C=C/c1cccc(S(=O)(=O)Nc2ccccc2)c1)NO [Belinostat]	0.9138	1.209	1.035	1.073	1.192	1.006	–	–
CS(=O)(=O)c1ccc(C(=O)Nc2ccc(Cl)c(-c3ccccn3)c2)c(Cl)c1 [Vismodegib]	0.8416	0.9134	0.9421	0.9752	0.846	0.8976	–	–
Nc1ccn([C@@H]2O[C@H](CO)[C@@H](O)[C@@H]2O)c(=O)n1 [Cytarabine hydrochloride]	0.9825	1.254	1.524	0.9917	1.381	1.876	–	–
